Experimental data published in ChEMBL document CHEMBL4808206, “Novel Substituted 3,4-Dihydroquinazoline Derivatives for Treating Hepatitis B Virus Infection” (ACS Med Chem Lett, 2021).
One block for each compound: values may come before it.

Tested on: Hepatitis B virus
Test: Antiviral activity against HBV infected in human HepDES19 cells assessed as reduction in HBV cccDNA production by measuring inhibition of HBeAg secretion incubated for 5 days by ELISA
Type: functional, organism-based
Settings: HepDES19, 120 h

SMILES: NC(=O)C1NC(c2cccc(Br)c2)=Nc2cc(C(F)(F)F)ccc21 (stereo unspecified)
IC50: 0.26 µM

SMILES: O=C(O)C1NC(c2ccc(N3CCCC3)nc2)=Nc2c(Cl)cccc21 (stereo unspecified)
IC50: 0.05 µM

SMILES: COC(=O)C1NC(c2ccc(Br)cc2)=Nc2c(Cl)cccc21 (stereo unspecified)
IC50: 0.33 µM

SMILES: CC1(C(=O)O)NC(c2ccc(Br)cc2)=Nc2c(Cl)cccc21 (stereo unspecified)
IC50: 0.13 µM

Further compounds by falling IC50, results first:

IC50: 0.07 µM
SMILES: NC(=O)C1NC(c2ccc(Br)cc2)=Nc2c(Cl)cccc21 (stereo unspecified)

IC50: 0.027 µM
SMILES: COc1ccc2c(c1)CCN(C1=Nc3c(Cl)cccc3C(C)N1)C2=O (stereo unspecified)
